# According to patent US20240327792A1, “FLUID SHEAR STRESS FOR EX VIVO ACTIVATION OF IMMUNE EFFECTOR CELLS” (Vanderbilt University, priority 2021, published 2024):
# What was measured:
# [1] = system: NF-κB phosphorylation in DC2.4 cells; assay: NF-κB phosphorylation in DC2.4 dendritic cells (flow cytometry); assay type: cell-based, murine
# Description: (§1) Prior to prepping cells, the cone-and-plate was incubated with 5% bovine serum albumin (BSA) for 1 h in order to block non-specific binding. DC2.4 cells were lifted with trypsin, washed, and resuspended in complete RMPI media at 200,000 cells/mL. Cells were placed on a rotator for static conditions. For shear conditions, an FSS of 5.0 dyn/cm^2 was applied for 1 h using cone-and-plate flow device. Static and shear conditions were either left untreated or treated with lipopolysaccharide (LPS) potent stimulator at 10 μg/mL.
# (§2) Flow cytometry analysis and antibody staining: Following FSS stimulation, cells were plated overnight or immediately prepped for flow cytometry analysis. For intracellular proteins such as NF-κB and AP-1, cells were fixed with 4% paraformaldehyde for 10 min. Cells were washed with HBSS and permeabilized with 100% ice cold methanol. Cells were washed again and stained for 15 min in the dark with antibodies fluorescently-labeled with PE fluorophore while suspended in 1% BSA. Guava easyCyte 5HT flow cytometer was used to measure fluorescent intensity, with FloJo software used for gating and analysis. For extracellular proteins analyzed after 24 h, cells were lifted with trypsin, washed, and incubated with fluorescently-labeled antibodies in 1% BSA and then washed a final time.
# (§3) Inhibition of NF-κB: NF-κB was inhibited using caffeic acid phenethyl ester (CAPE). DC2.4 cells were lifted, washed and suspended in 200,000 cells/mL complete media. 1 μL of CAPE was added to this suspension. Cells were placed on a rotator for 30 min to allow for effective inhibition, and then added to the cone-and-plate viscometer for FSS stimulation. Following FSS, NF-κB phosphorylation analysis was performed after 1 h FSS. Following stimulation, 100,000 cells were plated overnight for cytokine analysis and 100,000 cells were immediately analyzed for NF-κB phosphorylation. NF-κB and cytokine assays were performed as described previously.
# GsMTx4: GsMTx-4 (ab141871) was purchased from Abcam. […] Following FSS, cells were prepared and analyzed for NF-κB phosphorylation as previously described. […]
# DC2.4 cells [2] = assay: Intracellular cytokine staining of DC2.4 cells after 24 h (IL-6, IL-12, CCR7); assay type: cell-based, murine
# Description: as §1
# Cytokine staining: For intracellular cytokine staining (ICS), cells were plated overnight following FSS stimulation. After 24 h, cells were treated with 1:1000 GolgiPlug Transport Inhibitor to block cytokine secretion. After 4 h, cells were lifted and stained following the previously described protocol for staining intracellular proteins. IL-6, IL-12 and CCR7 were investigated in this study.
# as §3
# [3] = system: ZAP70 phosphorylation in Jurkat cells; assay: ZAP70 phosphorylation of Jurkat cells treated with FSS and CD3/CD28 antibodies (flow cytometry); assay type: cell-based, human
# Description: T cell activation by FSS: Jurkat or primary T cells were collected and resuspended at a concentration of 200,000 cells/mL in complete RPMI 1640 media. The cells were treated with or without functional grade antibodies targeting CD3 (OKT3) and CD28 (CD28.2) at a concentration of 2 μg/mL for both antibodies. The T cells were then loaded into a Brookfield cone-and-plate viscometer for FSS treatment as described previously in Mitchell & King (Mitchell, M. J. et al. New J. Phys. 2013 15:015008). In a cone-and-plate viscometer the FSS magnitude is equal in all radial locations of the viscometer. The shear rate (G) is defined by the equation:
# τ=μG • where μ is the viscosity (cP) of the fluid. In these experiments, viscosity was approximately 2.5 cP. Before FSS treatment, the cone-and-plate viscometer was cleaned thoroughly with 70% ethanol. The stationary plate and the rotating cone were then incubated with 5% BSA for 1 h to block nonspecific adhesion. The cells were exposed to fluid shear stress ranging from 0.5-5.0 dyn/cm^2 for times ranging from 15 to 60 min. Primarily, the cells were treated with FSS of magnitude 5.0 dyn/cm^2 for 1 h.
# Where indicated, Jurkat cells were pretreated with different compounds prior to antibody and FSS treatment. The Jurkat cells were incubated with either 5 μM Cyclosporin A (CSA), 10 μM Cytochalasin D (CCD), 10 μM GsMTx-4, or 2 mM EGTA 30 min prior to antibody and FSS treatment.
# Flow cytometry antibody staining: When staining for intracellular proteins, the cells were immediately fixed with 4% paraformaldehyde for 10 min. The cells were washed thoroughly and permeabilized with 100% ice cold methanol for 10 min. After washing the cells, the cells were stained with the indicated fluorescent-tagged antibodies for 15 min in 1% BSA. The fluorescence of each sample was measured using a Gauva easyCyte 5HT flow cytometer. Gating was performed using FlowJo software. For Jurkat samples, debris was gated out and fluorescence was quantified using FlowJo software.
# DC2.4 cells [4] = assay: Costimulatory molecule expression in DC2.4 cells 24 h after stimulation; assay type: cell-based, murine; settings: 10 μg/mL LPS, 24 h after 1 h stimulation, regardless of shear stress
# Description: as §1, §2
# [5] = after CAPE treatment and FSS, 24 h
# [6] = Jurkat cells pretreated 10 μM 30 min prior to FSS and antibody treatment, compared to FSS and antibodies without the inhibitor
compound,measurement,setting,value
"O=C(/C=C/c1ccc(O)c(O)c1)OCCc1ccccc1 [CAPE, caffeic acid phenethyl ester]",NF-κB phosphorylation compared to untreated cells,"[1]; DC2.4 cells, CAPE 30 min before 1 h FSS",significant reduction
same,CCR7 production,DC2.4 cells [2]; [5],strong trend in the reduction
same,IL-6 production,DC2.4 cells [2]; [5],strong trend in the reduction
same,IL-12 release,DC2.4 cells [2]; [5],significant reduction
"C=C1[C@@H](C)[C@H]2[C@H](Cc3ccccc3)NC(=O)[C@]23[C@H](OC(C)=O)/C=C/[C@@](C)(O)C(=O)[C@@H](C)C/C=C/[C@H]3[C@@H]1O [CCD, Cytochalasin D]","ZAP70 phosphorylation (activation), antibody-only condition","[3]; Jurkat cells pretreated 10 μM 30 min, antibody-only, no FSS",not significantly altering
same,ZAP70 phosphorylation,[3]; [6],significantly reduced
O=C(O)CN(CCOCCOCCN(CC(=O)O)CC(=O)O)CC(=O)O [EGTA],ZAP70 phosphorylation,"[3]; Jurkat cells pretreated 2 mM for 30 min, then FSS and antibodies, compared to FSS and antibodies only",significant reduction
GsMTx-4,NF-κB phosphorylation,"[1]; DC2.4 cells incubated with 10 μmol GsMTx4, FSS, two replicates",reduced
same,ZAP70 phosphorylation,[3]; [6],significant reduction
lipopolysaccharide [LPS],"NF-κB phosphorylation, FSS with LPS versus FSS without LPS","[1]; DC2.4 cells, 10 μg/mL LPS, 5.0 dyn/cm^2 FSS, 1 h",no significant difference
same,CD40 costimulatory molecule expression enhanced in the presence of LPS,DC2.4 cells [4],significant
same,CD80 costimulatory molecule expression enhanced in the presence of LPS,DC2.4 cells [4],trend
same,"release of IL-6, IL-12 and CCR7, FSS versus FSS with LPS","DC2.4 cells [2]; 10 μg/mL LPS, 24 h after 1 h 5.0 dyn/cm^2 FSS",not a significant difference
